Where two headings read alike, the source gives them in different places.

The assay has as its target T1, hT1R1/hT1R3 umami receptor (Homo sapiens, UniProt Q7RTX0+Q7RTX1).
T1 construct: expressed in transfected cells; host or cells: HEK293 derivative stably expressing Gα15, clone I-17, expression induced with mifepristone
T1 sequence (Q7RTX1 21-841): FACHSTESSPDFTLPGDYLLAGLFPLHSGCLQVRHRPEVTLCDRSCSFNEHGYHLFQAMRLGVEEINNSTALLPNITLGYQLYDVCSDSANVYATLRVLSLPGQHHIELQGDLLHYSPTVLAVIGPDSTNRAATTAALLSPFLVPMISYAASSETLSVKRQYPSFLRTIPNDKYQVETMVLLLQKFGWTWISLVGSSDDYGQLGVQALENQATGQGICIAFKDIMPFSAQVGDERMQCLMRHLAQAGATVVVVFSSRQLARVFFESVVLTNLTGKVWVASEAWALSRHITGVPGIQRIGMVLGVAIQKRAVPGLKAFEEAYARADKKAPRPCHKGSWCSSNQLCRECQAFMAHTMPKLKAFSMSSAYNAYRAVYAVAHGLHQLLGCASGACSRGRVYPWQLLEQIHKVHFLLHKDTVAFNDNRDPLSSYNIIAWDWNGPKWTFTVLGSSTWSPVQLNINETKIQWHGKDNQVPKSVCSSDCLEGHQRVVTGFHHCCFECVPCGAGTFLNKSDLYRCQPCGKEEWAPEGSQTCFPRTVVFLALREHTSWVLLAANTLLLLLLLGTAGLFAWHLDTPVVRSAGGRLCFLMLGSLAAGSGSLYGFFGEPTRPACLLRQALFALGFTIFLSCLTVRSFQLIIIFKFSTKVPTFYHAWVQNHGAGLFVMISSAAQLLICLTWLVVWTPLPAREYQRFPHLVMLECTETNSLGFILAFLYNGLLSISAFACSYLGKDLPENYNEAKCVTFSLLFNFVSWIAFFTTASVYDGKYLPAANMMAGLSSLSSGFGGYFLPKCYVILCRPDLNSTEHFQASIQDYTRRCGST
T1 sequence (Q7RTX0 21-852): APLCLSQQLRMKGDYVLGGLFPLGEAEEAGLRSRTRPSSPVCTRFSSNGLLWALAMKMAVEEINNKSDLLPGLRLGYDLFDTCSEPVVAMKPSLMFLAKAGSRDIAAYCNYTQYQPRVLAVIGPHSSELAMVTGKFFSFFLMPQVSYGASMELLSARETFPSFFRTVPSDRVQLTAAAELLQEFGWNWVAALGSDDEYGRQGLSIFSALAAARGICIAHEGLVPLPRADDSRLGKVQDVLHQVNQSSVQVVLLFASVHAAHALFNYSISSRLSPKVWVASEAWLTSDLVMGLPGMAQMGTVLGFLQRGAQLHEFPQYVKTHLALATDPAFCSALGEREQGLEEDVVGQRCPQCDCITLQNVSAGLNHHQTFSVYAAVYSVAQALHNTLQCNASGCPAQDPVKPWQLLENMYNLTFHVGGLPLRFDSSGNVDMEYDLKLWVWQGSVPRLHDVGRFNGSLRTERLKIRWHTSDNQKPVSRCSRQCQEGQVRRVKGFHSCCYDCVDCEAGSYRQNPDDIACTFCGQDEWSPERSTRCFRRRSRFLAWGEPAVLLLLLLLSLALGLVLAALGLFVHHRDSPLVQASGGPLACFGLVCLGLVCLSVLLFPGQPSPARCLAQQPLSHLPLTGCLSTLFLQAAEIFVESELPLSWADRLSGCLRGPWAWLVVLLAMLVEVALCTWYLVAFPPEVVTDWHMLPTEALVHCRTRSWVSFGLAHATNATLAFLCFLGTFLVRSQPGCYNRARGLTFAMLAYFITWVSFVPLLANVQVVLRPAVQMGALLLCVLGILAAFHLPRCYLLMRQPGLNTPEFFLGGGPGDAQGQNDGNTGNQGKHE
As to the kind of experiment: In vitro hT1R1/hT1R3 umami taste receptor activation assay (FLIPR, dose response). It counts as cell-based.

Where [1] appears, read: read-out: EC50 for activation of a hT1R1/hT1R3 umami receptor expressed in an HEK293 cell line.
[2] abbreviates: Table D, Umami Acrylamides, read-out: Umami EC50.
[3] abbreviates: Table C, Umami Ureas, read-out: Umami EC50.
Setting [4] is: Table A, Umami Amides, read-out: Umami EC50.

For `COC(=O)[C@@H](CC(C)C)NC(=O)/C=C/c1cccs1` [Example 83, 4-Methyl-2-(3-thiophen-2-yl-acryloylamino)-pentanoic acid methyl ester], the EC50 under setting [1] was determined as 590 nM.
For `COC(=O)[C@@H](CC(C)C)NC(=O)/C=C/c1ccc(OC)cc1` [Example D2, (R,E)-methyl 2-(3-(4-methoxyphenyl)acrylamido)-4-methylpentanoate], the EC50 under setting [2] stood at 320 nM.
In the case of `CCCC(CCC)NC(=O)Nc1ccccc1SC` [Example C18, 1-(heptan-4-yl)-3-(2-(methylthio)phenyl)urea], the EC50 under setting [3] was 260 nM.
For `CCCC(COC)NC(=O)c1ccc(OCC)c(C)c1` (centres unmarked) [Example 57, 4-ethoxy-N-(1-methoxypentan-2-yl)-3-methylbenzamide], the EC50 under setting [1] was determined as 690 nM.
For `CC1CCCCC1NC(=O)Nc1ccccc1Cl` (centres unmarked) [Example C3, 1-(2-chlorophenyl)-3-(2-methylcyclohexyl)urea], the EC50 under setting [3] was 520 nM.
`CCCc1ccc(C(=O)N[C@H](CC(C)C)C(=O)OC)cc1` [Example A91, (R)-methyl 4-methyl-2-(4-propylbenzamido)pentanoate]: the EC50 under setting [4] is 620 nM.
As to `CCCC(CCC)NC(=O)c1ccc(CC)cc1` [Example A71, 4-ethyl-N-(heptan-4-yl)benzamide], the EC50 under setting [4] was found to be 340 nM.
Same read-out and setting: to `Cc1ccoc1C(=O)NC1CCCC(C)C1C` (centres unmarked) [Example A32, N-(2,3-dimethylcyclohexyl)-3-methylfuran-2-carboxamide] belongs 1150 nM.
Turning to `CCCC(CCC)NC(=O)c1ccc2c(c1)OC(C)O2` (centres unmarked) [Example 18, N-(heptan-4-yl)-2-methylbenzo[d][1,3]dioxole-5-carboxamide], under setting [1], the EC50 was found to be 100 nM.
With `COC(=O)[C@H](NC(=O)c1ccc(C)c(C)c1)C(C)C` [Example A62, (R)-methyl 2-(3,4-dimethylbenzamido)-3-methylbutanoate], the EC50 under setting [4] came to 250 nM.
As for `CCCOC(=O)[C@@H](CC(C)C)NC(=O)c1ccc2c(c1)OCO2` [Example A51, (R)-propyl 2-(benzo[d][1,3]dioxole-5-carboxamido)-4-methylpentanoate], under setting [4], the EC50 was 1580 nM.
Consider `O=C(NCCc1ccccn1)C(=O)NCc1ccccc1Cl` [Example 136, N-(2-chlorobenzyl)-N′-(2-(pyridin-2-yl)ethyl)oxalamide], for which the EC50 under setting [1] came out at 10 nM.
Regarding `COc1cccc(C(=O)N[C@@H]2CCCc3ccccc32)c1N` [drawing 29, (R)-2-amino-3-methoxy-N-(1,2,3,4-tetrahydronaphthalen-1-yl)benzamide], the EC50 (opposite enantiomers compared, read-out: AFFINITY FOR T1R1/T1R3 SAVORY RECEPTOR EC50 UM) came to 90 nM.
Take `COC(=O)[C@@H](CC1CCCCC1)NC(=O)c1cc2cc(OC)ccc2o1` [Example 30, (R)-methyl 3-cyclohexyl-2-(5-methoxybenzofuran-2-carboxamido)propanoate]: the EC50 under setting [1] worked out at 1140 nM.
On the same count and under the same terms, the same measure for `CCCC(CCC)NC(=O)c1ccc2occc2c1` [Example 90, N-(heptan-4-yl)benzofuran-5-carboxamide]: 1190 nM; for `CCCC(NC(=O)c1ccc(OC)c(C)c1)c1ccccn1` (centres unmarked) [Example 114, 4-Methoxy-3-methyl-N-(1-pyridin-2-yl-butyl)-benzamide]: 1540 nM.
Turning to `CSc1ccccc1NC(=O)NC(C(C)C)C(C)C` [Example C14, 1-(2,4-dimethylpentan-3-yl)-3-(2-(methylthio)phenyl)urea], the EC50 under setting [3] was determined as 140 nM.
On to `COC(=O)[C@@H](CC(C)C)NC(=O)c1ccc(C)c(OC)c1` [Example A73, (R)-methyl 2-(3-methoxy-4-methylbenzamido)-4-methylpentanoate], for which the EC50 under setting [4] was 340 nM.
For the molecule `COc1ccc(/C=C/C(=O)NC(C(C)C)C(C)C)cc1` [Example D1, (E)-N-(2,4-dimethylpentan-3-yl)-3-(4-methoxyphenyl)acrylamide], the EC50 under setting [2] came to 290 nM.
Consider `COc1ccc(CNC(=O)c2ccccc2-c2ccccc2)c(OC)c1` [Example A104, Biphenyl-2-carboxylic acid 2,4-dimethoxy-benzylamide], for which, under setting [4], the EC50 amounted to 1370 nM.
Take `CCC(NC(=O)c1cc2cc(OC)ccc2o1)C(C)C` (centres unmarked) [Example A16, 5-methoxy-N-(2-methylpentan-3-yl)benzofuran-2-carboxamide]: the EC50 under setting [4] worked out at 1180 nM.
In the case of `C=Cc1ccccc1NC(=O)NC(CCC)CCC` [Example C30, 1-(heptan-4-yl)-3-(2-vinylphenyl)urea], the EC50 under setting [3] stood at 790 nM.
On to `CCCC(CCC)NC(=O)c1ccc(OC)c(F)c1` [Example A74, 3-fluoro-N-(heptan-4-yl)-4-methoxybenzamide], for which, under setting [4], the EC50 is 350 nM.
Consider `CCCC(CCC)NC(=O)Nc1ccc(C)cc1C` [Example C29, 1-(2,4-dimethylphenyl)-3-(heptan-4-yl)urea], for which the EC50 under setting [3] amounted to 790 nM.
On to `COc1ccc(CNC(=O)C(=O)NCCCc2ccccn2)c(OC)c1` [Example 127, N-(2,4-Dimethoxy-benzyl)-N′-(3-pyridin-2-yl-propyl)-oxalamide], for which the EC50 under setting [1] came to 1840 nM.
As for `COc1cc(C)ccc1NC(=O)NC(C(C)C)C(C)C` [Example C16, 1-(2,4-dimethylpentan-3-yl)-3-(2-methoxy-4-methylphenyl)urea], the EC50 under setting [3] is 210 nM.
Regarding `COC(=O)[C@@H](CC(C)C)NC(=O)c1ccc(OC)c(Cl)c1` [Example 62, (R)-methyl 2-(3-chloro-4-methoxybenzamido)-4-methylpentanoate], under setting [1], the EC50 is 80 nM.
On to `CCCC(CCC)C(=O)Nc1ccc2c(c1)OCO2` [Example A50, N-(benzo[d][1,3]dioxol-5-yl)-2-propylpentanamide], for which the EC50 under setting [4] stood at 1570 nM.
On to `CCOc1ccc(NC(=O)c2c(Cl)ccc(Cl)c2OC)cc1` [Example A1, 3,6-Dichloro-N-(4-ethoxy-phenyl)-2-methoxy-benzamide], for which, under setting [4], the EC50 turned out to be 220 nM.
As to `COC(=O)[C@@H](CC(C)C)NC(=O)c1ccc(F)c(C)c1` [Example 66, (R)-methyl 2-(4-fluoro-3-methylbenzamido)-4-methylpentanoate], the EC50 under setting [1] was found to be 320 nM.
Take `CCCC(NC(=O)c1ccc(OCC)c(C)c1)c1ccc(OC)cc1` (centres unmarked) [Example 116, 4-Ethoxy-N-[1-(4-methoxy-phenyl)-butyl]-3-methyl-benzamide]: the EC50 under setting [1] was found to be 3900 nM.
Consider `Cc1ccc(C(=O)N[C@H]2CCc3ccccc32)cc1C` [Example A112, (S)-N-(2,3-dihydro-1H-inden-1-yl) 3,4-dimethylbenzamide], for which the EC50 under setting [4] stood at 790 nM.
Regarding `CCCC(CCC)NC(=O)c1ccc2nc(C)oc2c1` [Example 46, 2-Methyl-benzooxazole-6-carboxylic acid (1-propyl-butyl)-amide], the EC50 under setting [1] came out at 2100 nM.
Turning to `CCCOc1ccc(C(=O)N[C@H](CC(C)C)C(=O)OC)cc1` [Example A82, (R)-methyl 4-methyl-2-(4-propoxybenzamido)pentanoate], the EC50 under setting [4] came out at 510 nM.
As to `CCC(CC)NC(=O)/C=C/c1ccc(OCCO)cc1` [Example 76, N-(1-Ethyl-propyl)-3-[4-(2-hydroxy-ethoxy)-phenyl]-acrylamide], the EC50 under setting [1] was found to be 5800 nM.
Take `CCCC(CC)NC(=O)c1ccc(C)c(C)c1` (centres unmarked) [Example A56, N-(hexan-3-yl)-3,4-imethylbenzamide]: the EC50 under setting [4] turned out to be 140 nM.
Same read-out and setting: to `CCCC(CCC)NC(=O)c1ccc(SC)cc1` [Example A75, N-(heptan-4-yl)-4-(methylthio)benzamide] belongs 390 nM.
Take `O=C(NCCc1ccccn1)C(=O)NCc1cc2ccccc2s1` [Example 150, N-(Benzo[b]thiophen-2-ylmethyl)-N′-(2-(pyridin-2-yl)ethyl)oxalamide]: under setting [1], the EC50 amounted to 740 nM.

Source of the values: patent publication US20060045953A1 (priority 2004, published 2006).
